Experimental findings from BindingDB's records for doi:10.7270/Q2ZC817P (The Scripps Research Institute Molecular Screening Center, 2007) are described below.

Broadly, the EC50 is the concentration giving half of the maximal effect.

Structures can show the parent of a compound that is named as a salt.

The first assay deals with Sphingosine 1-phosphate receptor 1 (Homo sapiens, UniProt P21453). As to the kind of experiment: S1P1 agonism potentiation – cell-based, potentiator mode, 60K MLSMR set, dose response (AID 466).
Chain of Sphingosine 1-phosphate receptor 1 (P21453 whole entry): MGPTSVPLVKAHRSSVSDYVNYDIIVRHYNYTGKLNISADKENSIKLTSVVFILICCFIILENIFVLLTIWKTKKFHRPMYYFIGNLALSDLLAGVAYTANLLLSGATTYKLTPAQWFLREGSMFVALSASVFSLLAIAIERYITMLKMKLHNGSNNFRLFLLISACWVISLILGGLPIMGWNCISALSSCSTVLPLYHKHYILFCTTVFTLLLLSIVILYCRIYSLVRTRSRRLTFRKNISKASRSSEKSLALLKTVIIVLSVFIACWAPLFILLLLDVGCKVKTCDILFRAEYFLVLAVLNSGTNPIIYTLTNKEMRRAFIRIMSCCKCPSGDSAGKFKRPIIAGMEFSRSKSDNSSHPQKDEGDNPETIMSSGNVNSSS
Details: not given
For the compound `CC(C)c1ccc2oc(-c3ccc(N)cc3)nc2c1` [4-(5-propan-2-yl-1,3-benzoxazol-2-yl)aniline], the concentration giving a half-maximal response (EC50) was determined as 2.14 µM.
Same read-out and setting: in the case of `Clc1ccc(-n2nnnc2Sc2ncnc3sccc23)cc1` [SMR000066808] it was 5.29 µM.
On the same count and under the same terms, the same measure for `CCN(CC)C(=O)C1CCN(S(=O)(=O)c2ccc3oc4ccccc4c3c2)CC1` [1-(2-dibenzofuranylsulfonyl)-N,N-diethyl-4-piperidinecarboxamide]: above 30 µM.
On the same count and under the same terms, in the case of `Cc1ccc2oc(-c3ccc(NC(=O)c4cccnc4)cc3)nc2c1` [MLS000068975] it was 2.81 µM.
Consider `CCCC(=O)N1CCN(c2ccc(NC(=O)c3cc4ccccc4o3)cc2Cl)CC1` [MLS000096729], for which the EC50 was 8.63 µM.
Still for that read-out and setting: in the case of `Cc1cccc(-c2nc(CSCC(=O)N3CCN(Cc4ccc5c(c4)OCO5)CC3)c(C)o2)c1` [1-(1,3-benzodioxol-5-ylmethyl)-4-[({[5-methyl-2-(3-methylphenyl)-1,3-oxazol-4-yl]methyl}thio)acetyl]piperazine] it was 5.42 µM.
As for `CCOc1ccc(S(=O)(=O)n2cnc3cc(C)c(C)cc32)cc1` [1-(4-Ethoxy-benzenesulfonyl)-5,6-dimethyl-1H-benzoimidazole], the EC50 was found to be 8.29 µM.
On the same count and under the same terms, in the case of `Cc1ccc2c(c1)[nH]c1c(N3CCN(Cc4ccccc4)CC3)ncnc12` [SMR000044826] it was 3.65 µM; in that of `CC(C)(C)SCCNS(=O)(=O)c1ccccc1` [MLS000112230], above 95 µM; in that of `O=S1(=O)C=C(Sc2nc3cc(Cl)ccc3o2)c2ccccc21` [SMR000019512], above 30 µM.
As for `Cc1occc1C(=O)N1CCN(c2ccc(Cl)c(Cl)c2)CC1` [1-(3,4-dichlorophenyl)-4-(2-methyl-3-furoyl)piperazine], the EC50 came out at 5.18 µM.
For the compound `O=S(=O)(c1cccs1)N1CCN(CC(O)COc2cc(Cl)ccc2Cl)CC1` (centres undefined) [1-(2,5-dichlorophenoxy)-3-(4-thiophen-2-ylsulfonyl-1-piperazinyl)-2-propanol], the EC50 worked out at 4.33 µM.
On the same count and under the same terms, the same measure for `COC(=O)C1=CN(CCCN2CCCC2=O)C=C(C(=O)OC)C1c1ccccc1C(F)(F)F`: above 95 µM; for `CC(C)OC(=O)CSc1nc(N)c(C#N)c(-c2cccs2)c1C#N` [2-[(6-amino-3,5-dicyano-4-thiophen-2-yl-2-pyridinyl)thio]acetic acid propan-2-yl ester]: above 30 µM.
Still for that read-out and setting: the same measure for `O=C(CSc1nnc(Cc2csc(Nc3cccc(Cl)c3)n2)o1)N1CCc2ccccc21` [2-[[5-[[2-(3-chloroanilino)-1,3-thiazol-4-yl]methyl]-1,3,4-oxadiazol-2-yl]sulfanyl]-1-(2,3-dihydroindol-1-yl)ethanone]: above 95 µM; for `Oc1ccc(-c2nnc(SCC3CCCCC3)o2)cc1` [4-(5-Cyclohexylmethylsulfanyl-[1,3,4]oxadiazol-2-yl)-phenol]: 0.437 µM.
For `CC1CCCC(C)N1C(=O)CN1CCN(c2nc(-c3ccc(F)cc3)cs2)CC1` (centres undefined) [1-(2,6-Dimethyl-piperidin-1-yl)-2-{4-[4-(4-fluoro-phenyl)-thiazol-2-yl]-piperazin-1-yl}-ethanone], the EC50 is above 10 µM.
On to `O=C(Nc1cccc(C(F)(F)F)c1)N1CCC(c2nc(-c3ccc(F)cc3)no2)CC1` [4-[3-(4-Fluoro-phenyl)-[1,2,4]oxadiazol-5-yl]-piperidine-1-carboxylic acid (3-trifluoromethyl-phenyl)-amide], for which the EC50 stood at 6.42 µM.
Consider `COc1ccccc1Oc1ccc2c(c1)C(=O)N(c1cccc(O)c1)C2=O` [2-(3-hydroxyphenyl)-5-(2-methoxyphenoxy)isoindole-1,3-dione], for which the concentration giving a half-maximal response (EC50) was determined as 2.14 µM.
Regarding `O=S(=O)(NCc1cn2ccsc2n1)c1ccc(Oc2ccccc2)cc1` [MLS000094195], the EC50 worked out at 5 µM.
Consider `CCOc1ccc(-c2nnc(-c3ccco3)o2)cc1OCC` [2-(3,4-Diethoxy-phenyl)-5-furan-2-yl-[1,3,4]oxadiazole], for which the EC50 is 1.04 µM.
On the same count and under the same terms, the same measure for `Cc1ccccc1-n1c(SCC(=O)c2cc(C)n(C)c2C)nnc1-c1ccncc1` [2-[[4-(2-methylphenyl)-5-pyridin-4-yl-1,2,4-triazol-3-yl]sulfanyl]-1-(1,2,5-trimethylpyrrol-3-yl)ethanone]: above 95 µM; for `COC(=O)c1cc(NCc2ccccc2F)ccc1N1CCOCC1` [5-[(2-fluorobenzyl)amino]-2-morpholino-benzoic acid methyl ester]: 5.46 µM.
Consider `Cc1cc(C(=O)CSc2nnc(-c3cccnc3)n2-c2ccccc2F)c(C)n1C` [SMR000064090], for which the EC50 stood at 0.87 µM.
Same read-out and setting: the same measure for `O=C(CCN1CCc2ccccc2CC1)c1ccc2c(c1)OCCO2` [1-(2,3-dihydro-1,4-benzodioxin-6-yl)-3-(1,2,4,5-tetrahydro-3-benzazepin-3-yl)-1-propanone;hydrochloride]: 12.4 µM; for `Cc1ccc(-c2n[nH]c(=S)n2C)cc1`: above 95 µM; for `COc1ccccc1OCCCCCc1c(C)n[nH]c1C` [SMR000103101]: 8.22 µM.
Same read-out and setting: the same measure for `COCCN(C(=O)c1ccccc1)c1nnc(-c2cccnc2)s1` [MLS000032523]: 4.83 µM; for `Fc1ccc2[nH]c3c(N4CCSCC4)ncnc3c2c1` [MLS000078401]: 6.28 µM; for `CCn1c(SCC(=O)Nc2nc3ccc(C)cc3s2)nc2c(c1=O)SC(C)C2` (centres undefined) [2-[(3-ethyl-4-keto-6-methyl-6,7-dihydrothieno[3,2-d]pyrimidin-2-yl)thio]-N-(6-methyl-1,3-benzothiazol-2-yl)acetamide]: 7.72 µM.
Regarding `Cc1sc2ncnc(Sc3nnnn3-c3ccccc3)c2c1C` [5,6-dimethyl-4-(1-phenyltetrazol-5-yl)sulfanylthieno[2,3-d]pyrimidine], the EC50 was above 95 µM.
Still for that read-out and setting: the same measure for `CC(C)(C)OC(=O)N[C@@H](Cc1ccccc1)c1nnc(S(=O)(=O)Cc2ccccc2)o1` [SMR000047857]: 5.33 µM; for `Clc1ccc(OCc2nnc(SCc3nc4ccccc4[nH]3)n2Cc2ccco2)cc1` [2-[[[5-[(4-chlorophenoxy)methyl]-4-(2-furanylmethyl)-1,2,4-triazol-3-yl]thio]methyl]-1H-benzimidazole]: 9.34 µM; for `CN(C)c1ccnc2sc3c(=O)n(Cc4ccccc4)cnc3c12` [3-Benzyl-9-dimethylamino-3H-pyrido[3',2':4,5]thieno[3,2-d]pyrimidin-4-one]: 3.37 µM.
Turning to `O=C(NCc1ccco1)C1CCN(C(=O)c2cc3sccc3n2Cc2ccc(Cl)cc2)CC1` [1-[4-(4-chlorobenzyl)thieno[3,2-b]pyrrole-5-carbonyl]-N-(2-furfuryl)isonipecotamide], the EC50 is 9.88 µM.
The same measure, in the same setting: the same measure for `CCOc1ccc(C(=O)Nc2ccc(Cl)cn2)cc1Cl` [3-chloranyl-N-(5-chloranylpyridin-2-yl)-4-ethoxy-benzamide]: 4.76 µM; for `CCc1cc2c(N3CCN(c4ccccc4)CC3)ncnc2s1` [6-ethyl-4-(4-phenyl-1-piperazinyl)thieno[2,3-d]pyrimidine]: 8.06 µM.
For the compound `N#Cc1nc(-c2ccc(OCc3ccccc3)cc2)oc1NCc1cccnc1` [2-(4-benzoxyphenyl)-5-(3-pyridylmethylamino)oxazole-4-carbonitrile], the EC50 stood at 9.76 µM.

Still in this assay, the particulars now being: inactive by the depositor's call.
Regarding `O=C(Nc1ccc(Oc2ccccc2)cc1)c1cnc2n(c1=O)CCS2` [5-keto-N-(4-phenoxyphenyl)-2,3-dihydrothiazolo[3,2-a]pyrimidine-6-carboxamide], the 50% effective concentration (EC50) is 19.9 µM.
Same read-out and setting: the same measure for `CC1=CC(C)(C)Nc2ccc(OC(=O)c3ccco3)cc21`: 18 µM; for `CC(=O)Nc1ccc(S(=O)(=O)N2CCN(CCCOc3cc(C)ccc3C)CC2)cc1` [MLS000050317]: 17.5 µM.
On to `COc1ccc2c(c1)CCc1c(C(=O)NC3CCCCC3)noc1-2` [MLS000087437], for which the half-maximal effective concentration (EC50) worked out at 88.9 µM.
Take `Cc1cc(C(=O)COC(=O)c2csc3c2CCCC3)c(C)n1C` [4,5,6,7-tetrahydro-1-benzothiophene-3-carboxylic acid [2-oxo-2-(1,2,5-trimethyl-3-pyrrolyl)ethyl] ester]: the EC50 stood at 17.5 µM.
On the same count and under the same terms, in the case of `CCCn1c(CN2CCN(c3cccc(Cl)c3)CC2)nc2c1c(=O)n(C)c(=O)n2C` [8-[[4-(3-chlorophenyl)-1-piperazinyl]methyl]-1,3-dimethyl-7-propylpurine-2,6-dione] it was 18.8 µM; in that of `Cn1cccc1C(=O)OCc1cc(Cl)cc2c1OCOC2` [(6-chloranyl-4H-1,3-benzodioxin-8-yl)methyl 1-methylpyrrole-2-carboxylate], 17.2 µM; in that of `Cc1nc2sc(-c3ccccc3)cc2c(=O)n1-n1cccc1` [2-methyl-6-phenyl-3-(1-pyrrolyl)-4-thieno[2,3-d]pyrimidinone], 17.6 µM.
On to `CCNc1nc2c(c(=O)n(C)c(=O)n2C)n1Cc1ccc(Cl)cc1` [7-(4-chlorobenzyl)-8-(ethylamino)-1,3-dimethyl-xanthine], for which the EC50 was found to be 14.4 µM.
Same read-out and setting: the same measure for `COC(=O)c1ccc(CSc2nc3ccccc3c(=O)n2Cc2ccco2)o1` [5-[[[3-(2-furanylmethyl)-4-oxo-2-quinazolinyl]thio]methyl]-2-furancarboxylic acid methyl ester]: 40.4 µM; for `Oc1ccc(N2CCN(c3ncnc4sc5c(c34)CCC5)CC2)cc1` [4-[4-(7,8-dihydro-6H-cyclopenta[4,5]thieno[1,2-c]pyrimidin-1-yl)-1-piperazinyl]phenol]: 10.6 µM; for `O=C(CSc1nnc(-c2ccc(Cl)cc2)n1Cc1ccco1)c1cccs1` [2-[[5-(4-chlorophenyl)-4-(2-furanylmethyl)-1,2,4-triazol-3-yl]thio]-1-thiophen-2-ylethanone]: 13.8 µM.
Turning to `Cc1cc(C)n(-c2nc3ccccc3c(=O)n2OCCOc2ccccc2)n1` [2-(3,5-dimethyl-1-pyrazolyl)-3-(2-phenoxyethoxy)-4-quinazolinone], the EC50 was 15 µM.
As for `CS(=O)(=O)n1nc(OC(=O)c2cccc3ccccc23)cc1N` [(5-amino-1-methylsulfonylpyrazol-3-yl) naphthalene-1-carboxylate], the concentration for a half-maximal effect (EC50) came out at 11.9 µM.
Take `CC(C)(C)NC(=O)CSc1ncnc2c1nnn2Cc1ccccc1Cl` [MLS000034488]: the EC50 amounted to 12.7 µM.
Regarding `Cc1ccc(Cl)cc1N1CCN(C(=O)C2CCN(c3nnc(-n4cccc4)s3)CC2)CC1` [MLS000119702], the concentration for a half-maximal effect (EC50) was 43.3 µM.
